The values below are quoted from earlier work in PubChem BioAssay AID1259409 (Chemical Carcinogenesis Research Information System (CCRIS), 2018).

Molecules are shown by their SMILES.

The test system of the series is rodent chemically induced tumor inhibition, incidence and multiplicity. Description: CCRIS tumor inhibitor studies. As to conditions: Dose [Inhibitor]: 0, Route [Inhibitor]: ORAL.

Consider `O=C(NC(Cc1cc(=O)[nH]c2ccccc12)C(=O)O)c1ccc(Cl)cc1` (stereo unspecified), for which the “tumour outcome (control, treated, inhibition, significance)” value (Carcinogen: N-ETHYL-N'-NITRO-N-NITROSOGUANIDINE, 4245-77-6, 20 MG/KG/D IN DIET FOR 16 WK (STUDY DURATION: 16 WK), Species: MOUSE, Strain/Sex: C57BL/MALE, Target Tissue: Type of Lesion: DUODENUM: TUMOR, Dose [Carcinogen]: 100 MG/L IN DRINKING WATER FOR 4 WK, Promoter: NONE USED) is given as 22/33 (67%), 18/33 (55%), 18%, not significant; the “tumour outcome (control, treated, inhibition, significance)” value (Carcinogen: N-ETHYL-N'-NITRO-N-NITROSOGUANIDINE, 4245-77-6, 20 MG/KG/D IN DIET FOR DURATION OF STUDY (STUDY DURATION: 16 WK), Species: MOUSE, Strain/Sex: C57BL/MALE, Target Tissue: Type of Lesion: DUODENUM: TUMOR, Dose [Carcinogen]: 100 MG/L IN DRINKING WATER FOR 4 WK, Promoter: NONE) was 22/33 (67%), 18/31 (58%), 13%, not significant; the “tumour outcome (control, treated, inhibition, significance)” value (Carcinogen: N-ETHYL-N'-NITRO-N-NITROSOGUANIDINE, 4245-77-6, 50 MG/KG/D IN DIET FOR 16 WK (STUDY DURATION: 16 WK), Species: MOUSE, Strain/Sex: C57BL/MALE, Target Tissue: Type of Lesion: DUODENUM: TUMOR, Dose [Carcinogen]: 100 MG/L IN DRINKING WATER FOR 4 WK, Promoter: NONE USED) is reported as 22/33 (67%), 14/33 (42%), 37%, p<0.05; the “tumour outcome (control, treated, inhibition, significance)” value (Carcinogen: N-ETHYL-N'-NITRO-N-NITROSOGUANIDINE, 4245-77-6, 50 MG/KG/D IN DIET FOR DURATION OF STUDY (STUDY DURATION: 16 WK), Species: MOUSE, Strain/Sex: C57BL/MALE, Target Tissue: Type of Lesion: DUODENUM: TUMOR, Dose [Carcinogen]: 100 MG/L IN DRINKING WATER FOR 4 WK, Promoter: NONE) is 22/33 (67%), 14/31 (45%), 33%, not significant; the “tumour outcome (control, treated, inhibition, significance)” value (Carcinogen: N-METHYL-N'-NITRO-N-NITROSOGUANIDINE, 70-25-7, 20 MG/KG/D IN DIET FOR 34 WK BEGINNING 10 WK POST FIRST CARCINOGEN DOSE (STUDY DURATION: 44 WK), Species: RAT, Strain/Sex: WISTAR/MALE, Target Tissue: Type of Lesion: STOMACH: TUMOR, Dose [Carcinogen]: 80 MG/L IN DRINKING WATER FOR 28 WK, Promoter: NONE) was 10/13 (77%), 8/13 (62%), 19%, not significant.

`CN(C)C(=O)COC(=O)Cc1ccc(OC(=O)c2ccc(N=C(N)N)cc2)cc1`: the “tumour outcome (control, treated, inhibition, significance)” value (Carcinogen: N-NITROSOBIS(2-OXOPROPYL)AMINE, 60599-38-4, 500 PPM IN DIET FOR 5 WK DURING CARCINOGEN TREATMENT (STUDY DURATION: 30 WK), Species: HAMSTER, Strain/Sex: SYRIAN/FEMALE, Target Tissue: Type of Lesion: PANCREAS: ADENOCARCINOMA, Dose [Carcinogen]: 10 MG/KG 1/WK FOR 5 WK, Promoter: NONE USED) is listed as 24/30 (80%), 18/32 (56%), 30%, p<0.05.
